Experimental data as given in PubChem BioAssay (NCI).
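Grown in 96-well plates, cells were treated for 48 hours with each compound at five concentrations. Insufficient inhibition: endpoint recorded as highest concentration tested. TGI: total growth inhibition.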

Columns and labels:
Experiment in all cases: NCI tumour cell line growth inhibition, 48 h
786-0 renal = test system: 786-0 renal
A498 renal = test system: A498 renal
A549 NSCLC = test system: A549 NSCLC
ACHN renal = test system: ACHN renal
BT-549 breast = test system: BT-549 breast
CAKI-1 renal = test system: CAKI-1 renal
CCRF-CEM leukemia = test system: CCRF-CEM leukemia
COLO 205 colon = test system: COLO 205 colon
DU-145 prostate = test system: DU-145 prostate
EKVX NSCLC = test system: EKVX NSCLC
HCT-116 colon = test system: HCT-116 colon
HCT-15 colon = test system: HCT-15 colon
HL-60(TB) leukemia = test system: HL-60(TB) leukemia
HOP-62 NSCLC = test system: HOP-62 NSCLC
HOP-92 NSCLC = test system: HOP-92 NSCLC
HS 578T breast = test system: HS 578T breast
HT29 colon = test system: HT29 colon
IGROV1 ovarian = test system: IGROV1 ovarian
K-562 leukemia = test system: K-562 leukemia
KM12 colon = test system: KM12 colon
LOX IMVI melanoma = test system: LOX IMVI melanoma
M14 melanoma = test system: M14 melanoma
MALME-3M melanoma = test system: MALME-3M melanoma
MCF7 breast = test system: MCF7 breast
MDA-MB-231 breast = test system: MDA-MB-231 breast
MDA-MB-435 = test system: MDA-MB-435
MDA-N = test system: MDA-N
MOLT-4 leukemia = test system: MOLT-4 leukemia
NCI-H226 lung = test system: NCI-H226 lung
NCI-H23 lung = test system: NCI-H23 lung
NCI-H460 lung = test system: NCI-H460 lung
NCI-H522 lung = test system: NCI-H522 lung
NCI/ADR-RES ovarian = test system: NCI/ADR-RES ovarian
OVCAR-3 ovarian = test system: OVCAR-3 ovarian
OVCAR-4 ovarian = test system: OVCAR-4 ovarian
OVCAR-5 ovarian = test system: OVCAR-5 ovarian
OVCAR-8 ovarian = test system: OVCAR-8 ovarian
PC-3 prostate = test system: PC-3 prostate
RPMI-8226 leukemia = test system: RPMI-8226 leukemia
SF-268 CNS = test system: SF-268 CNS
SF-295 CNS = test system: SF-295 CNS
SF-539 CNS = test system: SF-539 CNS
SK-MEL-28 melanoma = test system: SK-MEL-28 melanoma
SK-MEL-5 melanoma = test system: SK-MEL-5 melanoma
SK-OV-3 ovarian = test system: SK-OV-3 ovarian
SN12C renal = test system: SN12C renal
SNB-19 CNS = test system: SNB-19 CNS
SNB-75 CNS = test system: SNB-75 CNS
SR leukemia = test system: SR leukemia
SW-620 colon = test system: SW-620 colon
T-47D breast = test system: T-47D breast
TK-10 renal = test system: TK-10 renal
U251 CNS = test system: U251 CNS
UACC-257 melanoma = test system: UACC-257 melanoma
UACC-62 melanoma = test system: UACC-62 melanoma
UO-31 renal = test system: UO-31 renal
HCC-2998 colon = test system: HCC-2998 colon
RXF 393 renal = test system: RXF 393 renal
SK-MEL-2 melanoma = test system: SK-MEL-2 melanoma

Measured: TGI

C/C(=N\NC(=S)N/N=C(\C)c1ccccn1)c1ccccn1
84.3 µM: EKVX NSCLC
3.78 µM: NCI-H226 lung
5.24 µM: CAKI-1 renal
4.88 µM: M14 melanoma
5.9 µM: MOLT-4 leukemia
8.83 µM: SF-539 CNS
27 µM: NCI/ADR-RES ovarian
16.3 µM: SF-268 CNS
15 µM: UACC-62 melanoma
> 100 µM: 786-0 renal | A549 NSCLC | BT-549 breast | COLO 205 colon | DU-145 prostate | HCT-116 colon | HCT-15 colon | HL-60(TB) leukemia | HOP-92 NSCLC | HS 578T breast | HT29 colon | IGROV1 ovarian | KM12 colon | LOX IMVI melanoma | MALME-3M melanoma | MCF7 breast | MDA-MB-231 breast | MDA-MB-435 | MDA-N | NCI-H23 lung | NCI-H522 lung | OVCAR-3 ovarian | OVCAR-4 ovarian | OVCAR-5 ovarian | OVCAR-8 ovarian | PC-3 prostate | RPMI-8226 leukemia | SF-295 CNS | SK-MEL-28 melanoma | SK-MEL-5 melanoma | SK-OV-3 ovarian | SN12C renal | SNB-19 CNS | SNB-75 CNS | SR leukemia | SW-620 colon | T-47D breast | TK-10 renal | U251 CNS | UACC-257 melanoma
82.6 µM: A498 renal
6.46 µM: NCI-H460 lung
7.92 µM: K-562 leukemia
5.28 µM: HOP-62 NSCLC
5.7 µM: ACHN renal
5.31 µM: UO-31 renal
1.7 µM: CCRF-CEM leukemia

O=C(NC12CC3CC(CC(C3)C1)C2)n1cnc2cncnc21
67.6 µM: SF-295 CNS
30.6 µM: SK-MEL-5 melanoma
54.5 µM: SF-539 CNS
98.7 µM: PC-3 prostate
53.8 µM: NCI-H522 lung
78.6 µM: MALME-3M melanoma
51.5 µM: HOP-62 NSCLC
47.1 µM: SK-OV-3 ovarian
92 µM: LOX IMVI melanoma
> 100 µM: 786-0 renal | A498 renal | A549 NSCLC | ACHN renal | BT-549 breast | CAKI-1 renal | CCRF-CEM leukemia | DU-145 prostate | EKVX NSCLC | HCC-2998 colon | HCT-116 colon | HCT-15 colon | HL-60(TB) leukemia | HOP-92 NSCLC | HS 578T breast | HT29 colon | K-562 leukemia | KM12 colon | M14 melanoma | MCF7 breast | MDA-MB-231 breast | MDA-MB-435 | MDA-N | MOLT-4 leukemia | NCI-H23 lung | NCI-H460 lung | NCI/ADR-RES ovarian | OVCAR-5 ovarian | OVCAR-8 ovarian | RXF 393 renal | SF-268 CNS | SK-MEL-28 melanoma | SN12C renal | SNB-19 CNS | SNB-75 CNS | SW-620 colon | T-47D breast | TK-10 renal | U251 CNS | UACC-257 melanoma | UACC-62 melanoma | UO-31 renal
47 µM: OVCAR-3 ovarian
58.4 µM: SK-MEL-2 melanoma
98 µM: IGROV1 ovarian
37.4 µM: COLO 205 colon
79.4 µM: RPMI-8226 leukemia
62.4 µM: SR leukemia
